# ChEMBL document CHEMBL4823282, “Novel Broad-Spectrum Antimicrobial Peptide Derived from Anoplin and Its Activity on Bacterial Pneumonia in Mice” (J Med Chem, 2021)
# Calls of active or inactive are those of the source. The rule behind the calls is not given here. Where a SMILES comes first, the peptide text is derived from it. Bridges are numbered along the chain shown (N, C = ends). [ ]: non-standard residue; d: D form. The star is where a group is joined. X1 = CC[C@H](C)CCCCC(=O)*; Dab = NCC[C@H](N)C(=O)O
# Assays:
# [1] = test system: Staphylococcus aureus; test: Antibacterial activity against Staphylococcus aureus ATCC 25923 incubated with 0.2 to 0.02 ug/ml chymotrypsin for 6 hrs followed by bacterial addition and measured after 18 hrs by CLSI based broth dilution method; format: functional, organism-based; conditions: dose 0.2-0.02 µg/ml
# [2] = test system: Staphylococcus aureus; test: Bactericidal activity against Staphylococcus aureus ATCC 25923 at 2MIC measured within 3 hrs by time-kill assay relative to control; format: functional
# [3] = Stability in BALB/C mouse serum assessed as compound degradation time measured up to 1440 mins by HPLC analysis; format: ADME, cell-free; conditions: 24 h
# [4] = test system: Klebsiella pneumoniae; test: Antibacterial activity against Klebsiella pneumoniae ATCC 700603 incubated with 0.2 to 0.02 ug/ml chymotrypsin for 6 hrs followed by bacterial addition and measured after 18 hrs by CLSI based broth dilution method; format: functional, organism-based; conditions: dose 0.2-0.02 µg/ml, time 23.0 hrs
# [5] = test system: Staphylococcus aureus; test: Antibacterial activity against Staphylococcus aureus ATCC 25923 incubated with 0.2 to 0.02 ug/ml trypsin for 6 hrs followed by bacterial addition and measured after 18 hrs by CLSI based broth dilution method; format: functional, organism-based; conditions: dose 0.2-0.02 µg/ml, time 23.0 hrs
# [6] = test system: Klebsiella pneumoniae; test: Antibacterial activity against Klebsiella pneumoniae ATCC 700603 incubated with 0.2 to 0.02 ug/ml trypsin for 6 hrs followed by bacterial addition and measured after 18 hrs by CLSI based broth dilution method; format: functional, organism-based; conditions: dose 0.2-0.02 µg/ml, time 23.0 hrs
# [7] = test system: Klebsiella pneumoniae; test: Antibiofilm activity against Klebsiella pneumoniae ATCC 700603 incubated for 24 hrs by crystal violet staining based assay; format: functional, organism-based
# [8] = test system: Staphylococcus aureus; test: Disruption of membrane integrity in Staphylococcus aureus ATCC 25923 assessed as pore formation at 1 times MIC incubated for 0.5 to 2 hrs by scanning electron microscopy; format: functional, organism-based; conditions: time 0.5-2 hrs
# [9] = test system: Staphylococcus aureus; test: Disruption of membrane integrity in Staphylococcus aureus ATCC 25923 assessed as content leakage at 1 times MIC incubated for 0.5 to 2 hrs by scanning electron microscopy; format: functional, organism-based; conditions: time 0.5-2 hrs
# [10] = test system: Klebsiella pneumoniae; test: Disruption of membrane integrity in Klebsiella pneumoniae ATCC 700603 assessed as membrane blebbing at 1 times MIC incubated for 0.5 to 2 hrs by scanning electron microscopy; format: functional, organism-based; conditions: time 0.5-2 hrs
# [11] = test system: Klebsiella pneumoniae; test: Disruption of membrane integrity in Klebsiella pneumoniae ATCC 700603 assessed as pore formation at 1 times MIC incubated for 0.5 to 2 hrs by scanning electron microscopy; format: functional, organism-based; conditions: time 0.5-2 hrs
# [12] = test system: Klebsiella pneumoniae; test: Disruption of membrane integrity in Klebsiella pneumoniae ATCC 700603 assessed as content leakage at 1 times MIC incubated for 0.5 to 2 hrs by scanning electron microscopy; format: functional, organism-based; conditions: time 0.5-2 hrs
# [13] = test system: Staphylococcus aureus; test: Drug localization in surface of Staphylococcus aureus ATCC 25923 at 2 times MIC incubated for 30 mins using ACD-labeled compound by PI-staining based laser scanning confocal microscopic analysis; format: functional, organism-based
# [14] = test system: Pseudomonas aeruginosa; test: Synergistic antibacterial activity against Pseudomonas aeruginosa ATCC 27853 at 2 times MIC incubated for 18 to 24 hrs in presence of 2 times MIC of polymyxin B by broth microdilution assay based checkerboard assay; format: functional; conditions: time 18-24 hrs
# [15] = test system: Escherichia coli; test: Synergistic antibacterial activity against Escherichia coli ATCC 25922 at 2 times MIC incubated for 18 to 24 hrs in presence of 2 times MIC of polymyxin B by broth microdilution assay based checkerboard assay; format: functional; conditions: time 18-24 hrs
# [16] = test system: Pseudomonas aeruginosa; test: Antibacterial activity against Pseudomonas aeruginosa ATCC 27853 at sub-MIC level after 15 passages by broth microdilution assay; format: functional, organism-based
# [17] = test system: Klebsiella pneumoniae; test: Antibacterial activity against Klebsiella pneumoniae ATCC 700603 infected in BALB/C mouse assessed as reduction in bacterial load in lung at 10 mg/kg, ip measured within 24 hrs by agar plate counting method (reference value: 2.77 x 10^7 CFU/mg); format: functional
# [18] = test system: Klebsiella pneumoniae; test: Antibacterial activity against Klebsiella pneumoniae ATCC 700603 infected in BALB/C mouse assessed as alveolar expansion at 5 mg/kg, ip by hematoxylin and eosin staining based assay; format: functional, organism-based
# [19] = test system: Klebsiella pneumoniae; test: Antibacterial activity against Klebsiella pneumoniae ATCC 700603 infected in BALB/C mouse assessed as reduction in inflammatory response at 5 to 10 mg/kg, ip by hematoxylin and eosin staining based assay; format: functional, organism-based; conditions: dose 5-10 mg/kg
# [20] = Toxicity in BALB/C mouse assessed as effect on lung at 19 mg/kg, ip administered as single dose by hematoxylin and eosin staining based assay; format: organism-based; conditions: in vivo
# [21] = Toxicity in BALB/C mouse assessed as effect on liver at 19 mg/kg, ip administered as single dose by hematoxylin and eosin staining based assay; format: organism-based; conditions: in vivo
# [22] = Toxicity in BALB/C mouse assessed as effect on kidney at 19 mg/kg, ip administered as single dose by hematoxylin and eosin staining based assay; format: organism-based; conditions: in vivo
# [23] = Induction of glomerulus hemorrhage in BALB/C mouse at 82 mg/kg, ip administered as single dose by hematoxylin and eosin staining based assay; format: organism-based; conditions: in vivo
# [24] = Induction of inflammation in BALB/C mouse at 82 mg/kg, ip administered as single dose by hematoxylin and eosin staining based assay; format: organism-based; conditions: in vivo
# [25] = test system: A549; test: Cytotoxicity against human A549 cells incubated for 12 hrs by MTT assay; format: cell-based; conditions: A549, 12 h
# [26] = test system: HK-2; test: Cytotoxicity against human HK2 cells incubated for 12 hrs by MTT assay; format: cell-based; conditions: HK-2, 12 h
# [27] = test system: Staphylococcus aureus; test: Antibacterial activity against Staphylococcus aureus ATCC 25923 incubated with 2000 ug/ml chymotrypsin for 6 hrs followed by bacterial addition and measured after 18 hrs by CLSI based broth dilution method; format: functional, organism-based; conditions: dose 2000.0 µg/ml, time 23.0 hrs
# [28] = test system: Klebsiella pneumoniae; test: Antibacterial activity against Klebsiella pneumoniae ATCC 700603 incubated with 2000 ug/ml chymotrypsin for 6 hrs followed by bacterial addition and measured after 18 hrs by CLSI based broth dilution method; format: functional, organism-based; conditions: dose 2000.0 µg/ml, time 23.0 hrs
# [29] = test system: Staphylococcus aureus; test: Antibacterial activity against Staphylococcus aureus ATCC 25923 incubated with 2000 ug/ml trypsin for 6 hrs followed by bacterial addition and measured after 18 hrs by CLSI based broth dilution method; format: functional, organism-based; conditions: dose 2000.0 µg/ml, time 23.0 hrs
# [30] = test system: Klebsiella pneumoniae; test: Antibacterial activity against Klebsiella pneumoniae ATCC 700603 incubated with 2000 ug/ml trypsin for 6 hrs followed by bacterial addition and measured after 18 hrs by CLSI based broth dilution method; format: functional, organism-based; conditions: dose 2000.0 µg/ml, time 23.0 hrs
# [31] = test system: Escherichia coli; test: Antibiofilm activity against Escherichia coli ATCC 25922 at 4 times MIC incubated for 24 hrs by crystal violet staining based assay; format: functional, organism-based
# [32] = test system: Cell membrane; test: Disruption of membrane integrity in Klebsiella pneumoniae ATCC 700603 assessed as membrane cracking at 1 times MIC incubated for 0.5 to 2 hrs by scanning electron microscopy; format: subcellular; conditions: Klebsiella pneumoniae 700603, time 0.5-2 hrs
# [33] = test system: Klebsiella pneumoniae; test: Antibacterial activity against Klebsiella pneumoniae ATCC 700603 infected in BALB/C mouse assessed as reduction in bacterial load at 5 mg/kg, ip by hematoxylin and eosin staining based assay; format: functional, organism-based
# [34] = test system: Klebsiella pneumoniae; test: Antibacterial activity against Klebsiella pneumoniae ATCC 700603 infected in BALB/C mouse assessed as reduction in inflammatory cell infiltration in […] at 5 mg/kg, ip by hematoxylin and eosin staining based assay; format: functional, organism-based
# [35] = Toxicity in BALB/C mouse infected with Klebsiella pneumoniae ATCC 700603 assessed as change in liver color at 5 mg/kg, ip by hematoxylin and eosin staining based assay; format: organism-based; conditions: in vivo
compound,measurement,setting,value
NCCCC[C@H](NC(=O)[C@H](CCCCN)NC(=O)[C@H](Cc1c[nH]c2ccccc12)NC(=O)[C@H](CCCCN)NC(=O)[C@H](CCCCN)NC(=O)[C@H](Cc1c[nH]c2ccccc12)NC(=O)[C@H](Cc1c[nH]c2ccccc12)NC(=O)[C@@H](N)CCCCN)C(=O)N[C@@H](Cc1c[nH]c2ccccc12)C(=O)N[C@@H](Cc1c[nH]c2ccccc12)C(N)=O (H-KWWKKWKKWW-NH2),Activity,[1],inactive
same,Activity,[2],100%
same,Time,[3],11.84 min
same,Activity,[4],Active
same,Activity,[5],Active
same,Activity,[6],Active
same,Activity,[7],Dose-Dependent Effect
same,Activity,[8],Active
same,Activity,[9],Active
same,Activity,[10],Active
same,Activity,[11],Active
same,Activity,[12],Active
same,Activity,[13],Active
same,FIC,[14],0.5625
same,FIC,[15],0.3125
same,Activity,[16],Active
same,Activity,[17],3.26 10^3CFU/mg
same,Activity,[18],Active
same,Activity,[19],Active
same,Activity,[20],Toxic
same,Activity,[21],Toxic
same,Activity,[22],Toxic
same,Activity,[23],Toxic
same,Activity,[24],Toxic
same,IC50,[25],87.5 µM
same,IC50,[26],63.5 µM
CC[C@H](C)CCCCC(=O)N[C@@H](CCN)C(=O)N[C@H](C(=O)N[C@@H](CCN)C(=O)N[C@H]1CCNC(=O)[C@H]([C@@H](C)O)NC(=O)[C@H](CCN)NC(=O)[C@H](CCN)NC(=O)[C@H](CC(C)C)NC(=O)[C@@H](Cc2ccccc2)NC(=O)[C@H](CCN)NC1=O)[C@@H](C)O (X1-[Dab]T[Dab][Dab][Dab][dF]L[Dab][Dab]T; lactam 4-C),Activity,[27],Active
same,Activity,[28],Active
same,Activity,[29],Active
same,Activity,[30],Active
same,Activity,[31],Active
same,Activity,[32],Active
same,Activity,[33],inactive
same,Activity,[34],inactive
same,Activity,[35],Toxic
